What was measured:
[1] = tested on: HEK293A cells transduced with h-α-syn PFFs; assay: Immunocytochemistry in HEK293A cells transduced with h-α-syn PFFs; type: cell-based, human
Experimental: Recombinant human α-syn (1–140) were obtained from NKMAX (SNA2001L). In vitro fibrillization was performed by diluting recombinant α-syn monomers to 1 mg/mL in sterile PBS, then incubating at 37 °C with constant agitation at 1,000 rpm for seven days. The fibrillization was verified by thioflavin T and sedimentation assays. The ability to form phospho-α-syn (S129) was also assessed by immunocytochemistry. In addition, to determine whether the generated PFFs act as seeds to accumulate endogenous α-syn, an adenovirus that expresses c-Myc-His-tagged human α-syn (gifted from lab of S.J.L) was used to infect cultured cells at an MOI of 10, followed by a fractionation assay. The administration of PFFs into 293A cells was done with protein delivery reagent (BioPORTER QuikEase Protein Delivery Kit, Sigma) following the provider’s instruction. The mouse α-syn PFFs were obtained from StressMarq (SPR-324). Prior to treatment, PFFs were sonicated at 20% amplitude, 1 s pulse on and off for 30 s (SONICS Vibra Cell sonicator, Merck Z412619). For cells, α-syn monomers and PFFs were transduced at 1 µg/mL.
Cells were fixed with 4% paraformaldehyde (PFA) for 20 min at room temperature, followed by permeabilization with 0.1% Triton X-100 buffer for 15 min. The cells were blocked with 2% bovine serum albumin (BSA) in PBS for 1 h at room temperature. Then, the cells were incubated with primary antibodies diluted in the blocking buffer overnight at 4 °C. After washing with PBS, the slides were incubated with AlexaFluor-conjugated secondary antibodies for 1 h at room temperature. After mounting the slides with mounting solution containing DAPI, the images were captured on an LSM700 confocal microscopy (Carl Zeiss).

[2] = molecular target: T1, p62 (Homo sapiens, UniProt Q13501); assay: Western blot of p62 oligomerization in HeLa cells; type: cell-based
T1 construct: endogenous in cells; host or cells: HeLa
Experimental: For the separation of Triton X-100 soluble and insoluble fractions for monitoring α-syn, cells were washed with PBS and lysed in Triton X-100 buffer (50 mM Tris / 150 mM NaCl / 100 mM EDTA / 1% Triton X-100, pH 7.6) containing protease and phosphatase inhibitors for 30 min on ice. The lysates were centrifuged at 12,000 rpm for 30 min, and the soluble supernatant was taken. The remaining pellets were washed with Triton X-100 buffer, followed by centrifugation at 12,000 rpm for 20 min. The supernatants were discarded, and the resulting insoluble pellets were resuspended in laemli buffer containing 1% SDS. Samples were subjected to SDS-PAGE. After blocking with 5% milk and washing process, the membranes were incubated with primary antibodies overnight at 4 °C, followed by washing with PBS-T and incubation with horseradish peroxidase-conjugated secondary antibodies. Immunoreactive bands were detected using ECL reagents (Thermo Fisher Scientific, 32,106). For non-reducing SDS-PAGE, cell lysates were mixed with 4 × laemli buffer containing no 2-mercaptoethanol. For reducing SDS-PAGE, cells were lysed by RIPA buffer (150 mM NaCl, 1% Triton X-100, 1% sodium deoxycholate, 0.1% Tris–HCl, pH 7.5, 2 mM EDTA) and prepared with 5 × protein sample buffer containing 2-mercaptoethanol (Elpis Biotech, EBA-1052). Densitometry of developed bands was analyzed with ImageJ (NIH, Bethesda).

[3] = Brain penetration of ATC161 in TauP301L-BiFC AD mouse model; type: in vivo, mice; conditions: after 4 h of oral administration
Experimental: Supplementary file 13024_2023_630_MOESM1_ESM.eps: Additional file 1: Supplementary figure 1. Drug profiles of ATL and Autotac compounds. A, drug profiles of ATL compounds. Tissue concentrations and oral bioavailability were measured in ICR male mice upon 5 mg/kg oral administration of each ATL compound. B, structures of ATC161~164. C, Pharmacokinetic study of ATC161 conducted in male ICR mice otherwise indicated. M.W. represents molecular weight. The plasma exposure and the half-life were determined upon either POor IPATC161 administration. The drug tissue exposure was determined in Tau301L BiFC mice. IV refers to intravenous injection.

[4] = tested on: α-syn PFF-injected mouse model; type: in vivo; conditions: 10 mg/kg oral
Experimental: Mice were anesthetized and perfused with PBS and 4% paraformaldehyde. Brains were sectioned at 30 μm thickness by vibratome (Leica). Free-floating sections were blocked with PBS containing 5% serum and 0.3% Triton X-100 for 1 h. The sections were then incubated with an anti-tyrosine hydroxylase (TH) antibody (1:5,000, Sigma, T1299) overnight at 4℃. The sections were incubated with biotinylated secondary antibody for 1 h at room temperature. The signal amplification was achieved by the ABC kit (Vector) followed by development with DAB (Vector). TH^+ optical density was measured in three brain sections per animal. Images of the ipsilateral and contralateral striatal area were obtained using an Axio scan Z1 slide scanner (Zeiss). Images were converted to grayscale via Image J, and the intensity was analyzed. Normalized values across the sections were used to compare the relative TH^+ optical density.
Intrastriatal injection of α-syn fibrils was performed in C57BL6/J male mice at 8 weeks of age. 5 µg of α-syn fibrils were sonicated and injected into the dorsal striata in mice at the empirically derived coordinates: 1.0 mm anterior and 1.5 mm lateral to the Bregma, and 3.0 mm ventral relative to the skull in the course of 20 min. Scalp incisions were closed by suture. […]
Brain sections were cut into 30 µm on a freezing microtome, and stored in tissue storage solution at -20 °C. Sections were washed with PBS and incubated with blocking buffer (2% normal goat serum, 1% BSA, 1% Triton X-100, and Tween-20 in PBS) for 1 h at room temperature. After washing with PBS, sections were incubated with primary antibodies (pS129-α-syn, GFAP) overnight at 4 °C, followed by secondary Goat anti-mouse AlexaFluor488 and Goat anti-rabbit AlexaFluor555 for 1 h at room temperature. Images were processed by Axio Scan Z1 (Carl Zeiss). In order to quantify the number of neurons in the PFF-injected striatum, the brain sections were stained with 0.1% crystal violet solution containing 0.1% acetic acid for 1 min at 50 ℃ and then rinsed in distilled water. Sections were dehydrated in 95% and 100% alcohol and mounted on slides.
The behavioral tests were performed according to IACUC approval (AUTOTAC Bio Inc., ATB-2107–06-1). The previously generated PFF-injected mouse model was used. For the forelimb grip strength test, a grip strength meter (Bioseb, BIO-GS3) was used. Three consecutive measurements were done for each mouse, and the average was calculated. For the motor coordination test, a rotarod (Bioseb, BX-ROD) was used. Each trial consisted of three attempts.

T1 sequence (Q13501 whole entry): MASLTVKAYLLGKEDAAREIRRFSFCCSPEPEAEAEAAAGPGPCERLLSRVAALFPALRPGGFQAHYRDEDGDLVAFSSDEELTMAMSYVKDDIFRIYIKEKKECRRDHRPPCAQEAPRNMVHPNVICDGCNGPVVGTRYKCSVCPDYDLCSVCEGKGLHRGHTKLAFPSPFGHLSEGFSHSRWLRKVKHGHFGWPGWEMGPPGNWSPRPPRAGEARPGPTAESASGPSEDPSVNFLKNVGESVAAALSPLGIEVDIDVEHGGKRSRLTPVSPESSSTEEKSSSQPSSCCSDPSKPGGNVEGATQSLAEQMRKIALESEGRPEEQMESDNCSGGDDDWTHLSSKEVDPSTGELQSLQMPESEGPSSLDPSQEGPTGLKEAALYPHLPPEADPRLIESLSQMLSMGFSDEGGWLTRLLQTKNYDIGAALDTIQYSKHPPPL

In the case of `Fc1ccc(COc2cccc(CNCCOCCOCCNc3cccc(-c4cc(-c5ccc6c(c5)OCO6)n[nH]4)c3)c2)cc1` [ATC161, 3-(3-(benzo[d][1,3]dioxol-5-yl)-1H-pyrazol-5-yl)-N-(2-(2-(2-((3-((4-fluorobenzyl)oxy)benzyl)amino)ethoxy)ethoxy)ethyl)aniline], the “number of phospho-H2AX+ foci (DNA double strand breaks)” value ([1]; 0.1 μM, 48 h) was “robust efficacy to reduce the number of phospho-H2AX^+ foci”, the “reduction in number of α-syn+ cytosolic puncta” value ([1]; 1 μM, 24 h) was 55% and the “p62 oligomerization compared with the other Autotac compounds” value ([2]; 1 μM, 24 h) was “most efficiently facilitated p62 oligomerization”. For the same molecule, the “concentration inducing p62 oligomerization” value ([2]; dose-dependent up to 1,000 nM) was ~ 1 nM, the Kp at 4 h [3] was about 0.1 and the “neuronal cell death (Nissl staining, injection site)” value [4] was “did not induce neuronal cell death”. The “increase in time on rotarod” value ([4]; 5 times per week, 16 weeks) was 59%, the “number of GFAP+ signals in striata near endopiriform nucleus” value ([4]; 9 weeks (45 treatments)) was “reduced the number of GFAP^+ signals” and the “TH+ fiber level in ipsilateral striatum” value ([4]; 16 weeks) was “reversed the TH^+ level to the extent of control group”. For the same molecule, the “number of p-α-syn+ aggregates in the contralateral striata” value ([4]; 16 weeks) was “attenuated the number of p-α-syn^+ aggregates”, the “peak grip force of fore- and hindlimbs” value ([4]; 16 weeks) was “increased the peak grip force of fore- and hindlimbs to the extent of control group” and the “number of p-α-syn+ aggregates in the injection sites” value ([4]; 16 weeks, vs vehicle) was “reduced the number of p-α-syn^+ aggregates”.

— article PMC10290391, “Targeted degradation of ⍺-synuclein aggregates in Parkinson’s disease using the AUTOTAC technology” (Molecular Neurodegeneration, 2023)
